Reference: ChEMBL document CHEMBL3867470, “Synthesis and biological evaluation of heteroaryl styryl sulfone derivatives as anticancer agents” (Bioorg Med Chem Lett, 2016)
Active and inactive are the calls of the source. No cut-off for these calls is given here.

What was measured:
[1] = Antiproliferative activity against human A2780 cells measured after 72 hrs by MTT assay; type: functional; conditions: A2780, 72 h
[2] = Antiproliferative activity against human HCT116 cells measured after 72 hrs by MTT assay; type: functional; conditions: HCT-116, 72 h
[3] = Cell cycle arrest in human A2780 cells assessed as accumulation at G2/M-phase at 5 times GI50 measured after 24 hrs by propidium iodide staining-based FACS analysis (reference value: 26%); type: functional
[4] = Cell cycle arrest in human A2780 cells assessed as accumulation at G2/M-phase at GI50 measured after 24 hrs by propidium iodide staining-based FACS analysis (reference value: 26%); type: functional
[5] = Cell cycle arrest in human A2780 cells assessed as accumulation at S-phase at GI50 measured after 24 hrs by propidium iodide staining-based FACS analysis (reference value: 19%); type: functional
[6] = Cell cycle arrest in human A2780 cells assessed as accumulation at G1-phase at 5 times GI50 measured after 24 hrs by propidium iodide staining-based FACS analysis (reference value: 53%); type: functional
[7] = system: A2780; assay: Induction of apoptosis in human A2780 cells assessed as downregulation of Mcl1 level at 300 to 3000 nM measured after 24 hrs by Western blot analysis; type: functional, cell-based
[8] = system: A2780; assay: Induction of apoptosis in human A2780 cells assessed as early apoptotic cells at GI50 measured after 24 hrs by Annexin V/propidium iodide staining-based FACS analysis (reference value: 2.81%); type: functional
[9] = Antiproliferative activity against human COLO205 cells measured after 72 hrs by MTT assay; type: functional; conditions: COLO 205, 72 h
[10] = system: A2780; assay: Induction of apoptosis in human A2780 cells assessed as early apoptotic cells at 5 times GI50 measured after 24 hrs by Annexin V/propidium iodide staining-based FACS analysis (reference value: 2.81%); type: functional
[11] = Antiproliferative activity against human HT-29 cells measured after 72 hrs by MTT assay; type: functional; conditions: HT-29, 72 h
[12] = system: A2780; assay: Induction of apoptosis in human A2780 cells assessed as cleaved PARP level at 300 to 3000 nM measured after 24 hrs by Western blot analysis; type: functional, cell-based
[13] = Cell cycle arrest in human A2780 cells assessed as accumulation at S-phase at 5 times GI50 measured after 24 hrs by propidium iodide staining-based FACS analysis (reference value: 19%); type: functional
[14] = system: A2780; assay: Induction of apoptosis in human A2780 cells assessed as necrotic cells at 5 times GI50 measured after 24 hrs by Annexin V/propidium iodide staining-based FACS analysis (reference value: 0.34%); type: functional
[15] = Antiproliferative activity against human 22Rv1 cells measured after 72 hrs by MTT assay; type: functional, CWR22R; conditions: 22Rv1, 72 h
[16] = Antiproliferative activity against human PC3 cells measured after 72 hrs by MTT assay; type: functional; conditions: PC-3, 72 h
[17] = Cell cycle arrest in human A2780 cells assessed as accumulation at Sub-G1 phase at GI50 measured after 24 hrs by propidium iodide staining-based FACS analysis (reference value: 2%); type: functional
[18] = Cytotoxicity against human WI38 cells assessed as reduction in cell viability measured after 72 hrs by MTT assay; type: toxicity, cell-based, WI-38
[19] = biological target: Serine/threonine-protein kinase PLK1 (Homo sapiens) (UniProt P53350); assay: Inhibition of Plk1 in human A2780 cells assessed as reduction in CDC25C phosphorylation at Ser198 residue at 300 to 3000 nM measured after 24 hrs by Western blot analysis; type: cell-based
Chain of Serine/threonine-protein kinase PLK1 (Homo sapiens) (P53350 whole entry): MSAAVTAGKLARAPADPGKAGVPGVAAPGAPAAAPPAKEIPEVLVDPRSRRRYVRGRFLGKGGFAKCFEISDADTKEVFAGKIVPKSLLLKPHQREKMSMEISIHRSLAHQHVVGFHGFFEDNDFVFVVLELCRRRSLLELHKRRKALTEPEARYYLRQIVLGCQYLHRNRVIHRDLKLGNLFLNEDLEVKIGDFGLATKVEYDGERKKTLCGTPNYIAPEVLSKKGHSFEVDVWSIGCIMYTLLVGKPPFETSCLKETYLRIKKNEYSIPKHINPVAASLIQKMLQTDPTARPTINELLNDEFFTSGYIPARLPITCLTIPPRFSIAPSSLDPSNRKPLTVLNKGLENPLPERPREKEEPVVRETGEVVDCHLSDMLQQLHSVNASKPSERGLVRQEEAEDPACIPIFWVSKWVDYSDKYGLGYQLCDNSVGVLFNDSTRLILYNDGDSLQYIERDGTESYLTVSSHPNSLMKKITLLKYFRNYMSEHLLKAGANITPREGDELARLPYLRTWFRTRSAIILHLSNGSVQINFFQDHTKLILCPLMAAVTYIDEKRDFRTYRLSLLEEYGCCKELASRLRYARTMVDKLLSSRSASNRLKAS

[20] = Cell cycle arrest in human A2780 cells assessed as accumulation at G1-phase at GI50 measured after 24 hrs by propidium iodide staining-based FACS analysis (reference value: 53%); type: functional
[21] = system: A2780; assay: Induction of apoptosis in human A2780 cells assessed as necrotic cells at GI50 measured after 24 hrs by Annexin V/propidium iodide staining-based FACS analysis (reference value: 0.34%); type: functional
[22] = system: A2780; assay: Induction of apoptosis in human A2780 cells assessed as late apoptotic cells at 5 times GI50 measured after 24 hrs by Annexin V/propidium iodide staining-based FACS analysis (reference value: 4.23%); type: functional
[23] = Antiproliferative activity against human LNCAP cells measured after 72 hrs by MTT assay; type: functional
[24] = Antiproliferative activity against human KM12 cells measured after 72 hrs by MTT assay; type: functional; conditions: KM12, 72 h
[25] = Antiproliferative activity against human C4-2B cells measured after 72 hrs by MTT assay; type: functional; conditions: LNCaP C4-2B
[26] = Cytotoxicity against human MRC5 cells assessed as reduction in cell viability measured after 72 hrs by MTT assay; type: toxicity, cell-based
[27] = Antiproliferative activity against human DU145 cells measured after 72 hrs by MTT assay; type: functional; conditions: DU-145, 72 h
[28] = system: A2780; assay: Induction of apoptosis in human A2780 cells assessed as viable cells at GI50 measured after 24 hrs by Annexin V/propidium iodide staining-based FACS analysis (reference value: 92.6%); type: functional
[29] = Antiproliferative activity against human MCF7 cells measured after 72 hrs by MTT assay; type: functional; conditions: MCF7, 72 h
[30] = system: A2780; assay: Induction of apoptosis in human A2780 cells assessed as late apoptotic cells at GI50 measured after 24 hrs by Annexin V/propidium iodide staining-based FACS analysis (reference value: 4.23%); type: functional
[31] = Antiproliferative activity against human DaOY cells measured after 72 hrs by MTT assay; type: functional
[32] = Antiproliferative activity against human PANC1 cells measured after 72 hrs by MTT assay; type: functional; conditions: PANC-1, 72 h
[33] = Cell cycle arrest in human A2780 cells assessed as accumulation at Sub-G1 phase at 5 times GI50 measured after 24 hrs by propidium iodide staining-based FACS analysis (reference value: 2%); type: functional
[34] = system: A2780; assay: Induction of apoptosis in human A2780 cells assessed as viable cells at 5 times GI50 measured after 24 hrs by Annexin V/propidium iodide staining-based FACS analysis (reference value: 92.6%); type: functional
[35] = biological target: Serine/threonine-protein kinase PLK1 (Homo sapiens) (UniProt P53350); conditions: A2780, 200 to 1000 nM
Description: Inhibition of Plk1 in human A2780 cells assessed as reduction in CDC25C phosphorylation at Ser198 residue at 200 to 1000 nM measured after 24 hrs by Western blot analysis

[36] = system: A2780; assay: Induction of apoptosis in human A2780 cells assessed as downregulation of Mcl1 level at 200 to 1000 nM measured after 24 hrs by Western blot analysis; type: functional, cell-based
[37] = system: A2780; assay: Induction of apoptosis in human A2780 cells assessed as cleaved PARP level at 200 to 1000 nM measured after 24 hrs by Western blot analysis; type: functional, cell-based

## COc1cc(OC)c(/C=C/S(=O)(=O)Cc2cnc(OC)cn2)c(OC)c1
[1]
  GI50: 490 nM
[2]
  GI50: 950 nM

## COc1cc(OC)c(/C=C/S(=O)(=O)Nc2ccc(Cl)cc2)c(OC)c1
[1]
  GI50: > 10000 nM
[2]
  GI50: > 10000 nM

## COc1cc(OC)c(/C=C/S(=O)(=O)Nc2cnc(Cl)cn2)c(OC)c1
[1]
  GI50: > 10000 nM
[2]
  GI50: > 10000 nM

## COc1cc(OC)c(/C=C/S(=O)(=O)Nc2ccc(OC)nc2)c(OC)c1
[1]
  GI50: 380 nM
[2]
  GI50: 1000 nM

## COc1ccc(NS(=O)(=O)/C=C/c2c(OC)cc(OC)cc2OC)cc1
[1]
  GI50: 10 nM
[2]
  GI50: 10 nM

## CNc1ncc(OC)c(CS(=O)(=O)/C=C/c2c(OC)cc(OC)cc2OC)n1
[1]
  GI50: 7540 nM
[2]
  GI50: > 10000 nM

## CCOc1cnc(CS(=O)(=O)/C=C/c2c(OC)cc(OC)cc2OC)cn1
[1]
  GI50: 540 nM
[2]
  GI50: 1280 nM

## COc1cc(OC)c(/C=C/S(=O)(=O)Cc2nc(N)ncc2OC)c(OC)c1
[1]
  GI50: > 10000 nM
[2]
  GI50: > 10000 nM

## CCOc1ccc(NS(=O)(=O)/C=C/c2c(OC)cc(OC)cc2OC)cc1
[3]
  Activity: 44%
[4]
  Activity: 29%
[5]
  Activity: 15%
[6]
  Activity: 21%
[7]
  Activity: Active
[8]
  Activity: 10.03%
[9]
  GI50: 590 nM
[10]
  Activity: 20.22%
[11]
  GI50: 580 nM
[12]
  Activity: Active
[13]
  Activity: 16%
[14]
  Activity: 1.17%
[15]
  GI50: 530 nM
[1]
  GI50: 310 nM
[16]
  GI50: 600 nM
[17]
  Activity: 5%
[18]
  GI50 at 72 h: > 10000 nM
[2]
  GI50: 350 nM
[19]
  inhibition: Active
[20]
  Activity: 50%
[21]
  Activity: 0.78%
[22]
  Activity: 7.57%
[23]
  GI50: 520 nM
[24]
  GI50: 340 nM
[25]
  GI50: 450 nM
[26]
  GI50 at 72 h: > 10000 nM
[27]
  GI50: 520 nM
[28]
  Activity: 83.21%
[29]
  GI50: 530 nM
[30]
  Activity: 5.92%
[31]
  GI50: 340 nM
[32]
  GI50: 300 nM
[33]
  Activity: 19%
[34]
  Activity: 70.89%

## COc1cc(OC)c(/C=C/S(=O)(=O)Cc2nc(Cl)ncc2OC)c(OC)c1
[1]
  GI50: > 10000 nM
[2]
  GI50: > 10000 nM

## COc1cc(OC)c(/C=C/S(=O)(=O)Nc2ccc(Cl)nc2)c(OC)c1
[1]
  GI50: 2600 nM
[2]
  GI50: 5640 nM

## COc1cc(OC)c(/C=C/S(=O)(=O)Cc2ccc(OC)c(NCC(=O)[O-])c2)c(OC)c1.[Na+] [RIGOSERTIB SODIUM]
[3]
  Activity: 33%
[4]
  Activity: 28%
[5]
  Activity: 19%
[35]
  inhibition: Active
[6]
  Activity: 20%
[8]
  Activity: 5.16%
[10]
  Activity: 27.41%
[13]
  Activity: 17%
[14]
  Activity: 0.29%
[1]
  GI50: 40 nM
[17]
  Activity: 5%
[36]
  Activity: Active
[2]
  GI50: 60 nM
[20]
  Activity: 48%
[21]
  Activity: 0.25%
[22]
  Activity: 2.25%
[37]
  Activity: Active
[28]
  Activity: 91.82%
[30]
  Activity: 2.75%
[33]
  Activity: 30%
[34]
  Activity: 69.9%

## COc1cc(OC)c(/C=C/S(=O)(=O)Cc2cnc(Cl)cn2)c(OC)c1
[1]
  GI50: 4760 nM
[2]
  GI50: > 10000 nM

## COc1cc(OC)c(/C=C/S(=O)(=O)Cc2cnc(OC)c(OC)c2)c(OC)c1
[1]
  GI50: 930 nM
[2]
  GI50: 2810 nM

## CCOc1cc(OC)cc(OC)c1/C=C/S(=O)(=O)Nc1ccc(OC)nc1
[1]
  GI50: 470 nM
[2]
  GI50: 420 nM
